According to ChEMBL document CHEMBL4673231, “Novel isoniazid embedded triazole derivatives: Synthesis, antitubercular and antimicrobial activity evaluation” (Bioorg Med Chem Lett, 2020):
Values after ≈ are worked out from the molar mass of the structure shown. Active and inactive are the calls of the source. No cut-off for these calls is given here.

What was measured:
Klebsiella aerogenes [1] = experiment: Antibacterial activity against Enterobacter aerogenes assessed as diameter of inhibition zone at 1 mg/ml incubated for 24 hrs by agar well diffusion assay; type: functional; details: for zone of inhibition at 1000 µg/mL: read-out: DIZ
Saccharomyces cerevisiae = experiment: Antifungal activity against Saccharomyces cerevisiae assessed as diameter of inhibition zone at 1 mg/ml incubated for 24 hrs by agar well diffusion assay; type: functional; details: for zone of inhibition at 1000 µg/mL: read-out: DIZ
[2] = system: Mycobacterium tuberculosis; experiment: Antimycobacterial activity against Mycobacterium tuberculosis H37Rv assessed as reduction in microbial growth incubated for 7 days by alamar blue assay; type: functional; details: 168 h, time 7 day
Shigella boydii = experiment: Antibacterial activity against Shigella boydii assessed as diameter of inhibition zone at 1 mg/ml incubated for 24 hrs by agar well diffusion assay; type: functional; details: for zone of inhibition at 1000 µg/mL: read-out: DIZ
Aspergillus niger = experiment: Antifungal activity against Aspergillus niger assessed as diameter of inhibition zone at 1 mg/ml incubated for 24 hrs by agar well diffusion assay; type: functional; details: for zone of inhibition at 1000 µg/mL: read-out: DIZ
Pseudomonas aeruginosa = experiment: Antibacterial activity against Pseudomonas aeruginosa assessed as diameter of inhibition zone at 1 mg/ml incubated for 24 hrs by agar well diffusion assay; type: functional; details: for zone of inhibition at 1000 µg/mL: read-out: DIZ
[3] = system: Salmonella enterica subsp. enterica serovar Abony; experiment: Antibacterial activity against Salmonella enterica subsp. enterica serovar Abony assessed as diameter of inhibition zone at 1 mg/ml incubated for 24 hrs by agar well diffusion assay; type: functional; details: for zone of inhibition at 1000 µg/mL: read-out: DIZ
[4] = Cytotoxicity against mouse RAW264.7 cells assessed as reduction in cell viability at 25 ug/ml incubated for 48 hrs by MTT assay; type: cell-based; details: at 25 µg/mL, read-out: INH
Bacillus cereus = experiment: Antibacterial activity against Bacillus cereus assessed as diameter of inhibition zone at 1 mg/ml incubated for 24 hrs by agar well diffusion assay; type: functional; details: for zone of inhibition at 1000 µg/mL: read-out: DIZ
Salmonella typhi [5] = experiment: Antibacterial activity against Salmonella typhi assessed as diameter of inhibition zone at 1 mg/ml incubated for 24 hrs by agar well diffusion assay; type: functional, Salmonella enterica subsp. enterica serovar Typhi; details: for zone of inhibition at 1000 µg/mL: Salmonella enterica, read-out: DIZ; for diameter of the inhibition zone (DIZ): Salmonella enterica subsp. enterica serovar Typhi
Staphylococcus aureus [6] = experiment: Antibacterial activity against Staphylococcus aureus assessed as diameter of inhibition zone at 1 mg/ml incubated for 24 hrs by agar well diffusion assay; type: functional; details: for zone of inhibition at 1000 µg/mL: read-out: DIZ
Escherichia coli = experiment: Antibacterial activity against Escherichia coli assessed as diameter of inhibition zone at 1 mg/ml incubated for 24 hrs by agar well diffusion assay; type: functional; details: for zone of inhibition at 1000 µg/mL: read-out: DIZ
Bacillus subtilis = experiment: Antibacterial activity against Bacillus subtilis assessed as diameter of inhibition zone at 1 mg/ml incubated for 24 hrs by agar well diffusion assay; type: functional; details: for zone of inhibition at 1000 µg/mL: read-out: DIZ
Staphylococcus aureus [7] = experiment: Antibacterial activity against Staphylococcus aureus ATCC 6538 by CLSI method; type: functional
Salmonella typhi [8] = experiment: Antibacterial activity against Salmonella typhi ATCC 9207 by CLSI method; type: functional, Salmonella enterica subsp. enterica serovar Typhi; details: Salmonella enterica
Klebsiella aerogenes [9] = experiment: Antibacterial activity against Enterobacter aerogenes ATCC 13048 by CLSI method; type: functional

Compound | zone of inhibition at 1000 µg/mL (Klebsiella aerogenes [1]) | MIC [2] | diameter of the inhibition zone (DIZ) (Shigella boydii) | diameter of the inhibition zone (DIZ) (Aspergillus niger) | diameter of the inhibition zone (DIZ) [3] | cytotoxicity at 48 h, 25 ug/ml [4] | diameter of the inhibition zone (DIZ) (Bacillus cereus) | zone of inhibition at 1000 µg/mL (Salmonella typhi [5]) | diameter of the inhibition zone (DIZ) (Staphylococcus aureus [6]) | diameter of the inhibition zone (DIZ) (Escherichia coli) | diameter of the inhibition zone (DIZ) (Bacillus subtilis) | diameter of the inhibition zone (DIZ) (Saccharomyces cerevisiae) | zone of inhibition at 1000 µg/mL (Aspergillus niger) | zone of inhibition at 1000 µg/mL (Pseudomonas aeruginosa) | zone of inhibition at 1000 µg/mL (Escherichia coli) | diameter of the inhibition zone (DIZ) (Klebsiella aerogenes [1]) | further results
O=C(N/N=C/c1cc([N+](=O)[O-])ccc1OCc1cn(-c2ccc(Br)cc2)nn1)c1ccncc1 | 12 mm | 12.5 µg/mL | inactive | inactive | inactive | 19% | inactive | 10 mm | inactive | inactive | inactive | – | – | – | – | – | zone of inhibition at 1000 µg/mL (Saccharomyces cerevisiae): 12 mm; diameter of the inhibition zone (DIZ) (Pseudomonas aeruginosa): inactive
COc1cccc(-n2cc(COc3ccc([N+](=O)[O-])cc3/C=N/NC(=O)c3ccncc3)nn2)c1 | 6 mm | 0.78 µg/mL | inactive | – | – | 23.9% | inactive | 12 mm | inactive | – | – | inactive | 13 mm | 10 mm | 9 mm | – | zone of inhibition at 1000 µg/mL [3]: 8 mm; zone of inhibition at 1000 µg/mL (Bacillus subtilis): 12 mm
Cc1ccc([N+](=O)[O-])cc1-n1cc(COc2ccc([N+](=O)[O-])cc2/C=N/NC(=O)c2ccncc2)nn1 | – | 0.78 µg/mL | inactive | – | inactive | 23.9% | inactive | – | inactive | – | inactive | inactive | 13 mm | 9 mm | 12 mm | inactive | diameter of the inhibition zone (DIZ) (Salmonella typhi [5]): inactive
NNC(=O)c1ccncc1 [ISONIAZID] | – | 0.1 µg/mL | – | – | – | – | – | – | – | – | – | – | – | – | – | – | –
CCc1ccc(-n2cc(COc3ccc([N+](=O)[O-])cc3/C=N/NC(=O)c3ccncc3)nn2)cc1 | – | 0.78 µg/mL | inactive | – | inactive | 26.9% | inactive | – | inactive | – | inactive | inactive | 10 mm | 10 mm | 10 mm | inactive | diameter of the inhibition zone (DIZ) (Salmonella typhi [5]): inactive
Cc1ccc(-n2cc(COc3ccc([N+](=O)[O-])cc3/C=N/NC(=O)c3ccncc3)nn2)c(C)c1 | – | 3.12 µg/mL | inactive | inactive | inactive | 17.6% | inactive | 11 mm | inactive | inactive | inactive | inactive | – | – | – | inactive | diameter of the inhibition zone (DIZ) (Pseudomonas aeruginosa): inactive
CO[C@H]1/C=C/O[C@@]2(C)Oc3c(C)c(O)c4c(O)c(c(/C=N/N5CCN(C)CC5)c(O)c4c3C2=O)NC(=O)/C(C)=C\C=C\[C@H](C)[C@H](O)[C@@H](C)[C@@H](O)[C@@H](C)[C@H](OC(C)=O)[C@@H]1C [RIFAMPIN] | – | 0.2 µg/mL | – | – | – | – | – | – | – | – | – | – | – | – | – | – | –
OC(Cn1cncn1)(Cn1cncn1)c1ccc(F)cc1F [FLUCONAZOLE] | – | – | – | – | – | – | – | – | – | – | – | – | 30 mm | – | – | – | zone of inhibition at 1000 µg/mL (Saccharomyces cerevisiae): 30 mm
O=C(O)c1cn(C2CC2)c2cc(N3CCNCC3)c(F)cc2c1=O [CIPROFLOXACIN] | – | 1.56 µg/mL | – | – | – | – | – | – | – | – | – | – | – | – | – | – | –
Cc1cc(C)c(-n2cc(COc3ccc([N+](=O)[O-])cc3/C=N/NC(=O)c3ccncc3)nn2)c(C)c1 | – | 0.78 µg/mL | inactive | inactive | inactive | 27.7% | inactive | 10 mm | inactive | inactive | inactive | inactive | – | – | – | inactive | diameter of the inhibition zone (DIZ) (Pseudomonas aeruginosa): inactive
O=C(N/N=C/c1cc([N+](=O)[O-])ccc1OCc1cn(-c2ccccc2F)nn1)c1ccncc1 | 10 mm | 12.5 µg/mL | inactive | inactive | inactive | 19.3% | inactive | 10 mm | inactive | inactive | – | inactive | – | 13 mm | – | – | zone of inhibition at 1000 µg/mL (Bacillus subtilis): 11 mm
CN(C)[C@@H]1C(O)=C(C(N)=O)C(=O)[C@@]2(O)C(O)=C3C(=O)c4c(O)cccc4[C@@](C)(O)[C@H]3C[C@@H]12 [TETRACYCLINE] | 24 mm | – | – | – | – | – | – | 28 mm | – | – | – | – | – | 28 mm | 29 mm | – | MIC (Staphylococcus aureus [7]): 20 µg/mL (≈ 45 µM); zone of inhibition at 1000 µg/mL (Shigella boydii): 29 mm; zone of inhibition at 1000 µg/mL [3]: 27 mm; zone of inhibition at 1000 µg/mL (Bacillus cereus): 32 mm; MIC (Salmonella typhi [8]): 20 µg/mL (≈ 45 µM); zone of inhibition at 1000 µg/mL (Staphylococcus aureus [6]): 22 mm; MIC (Klebsiella aerogenes [9]): 15 µg/mL (≈ 33.8 µM); zone of inhibition at 1000 µg/mL (Bacillus subtilis): 18 mm
CC[C@@H](CO)NCCN[C@@H](CC)CO [ETHAMBUTOL] | – | 3.12 µg/mL | – | – | – | – | – | – | – | – | – | – | – | – | – | – | –
Cc1cccc(-n2cc(COc3ccc([N+](=O)[O-])cc3/C=N/NC(=O)c3ccncc3)nn2)c1 | 8 mm | 12.5 µg/mL | inactive | – | inactive | 23.2% | – | 10 mm | – | inactive | – | inactive | 8 mm | 12 mm | – | – | zone of inhibition at 1000 µg/mL (Bacillus cereus): 13 mm; zone of inhibition at 1000 µg/mL (Staphylococcus aureus [6]): 13 mm; zone of inhibition at 1000 µg/mL (Bacillus subtilis): 10 mm
COc1ccc(-n2cc(COc3ccc([N+](=O)[O-])cc3/C=N/NC(=O)c3ccncc3)nn2)cc1 | 14 mm | > 25 µg/mL | – | – | – | – | – | 12 mm | – | – | – | – | 11 mm | 12 mm | 12 mm | – | MIC (Staphylococcus aureus [7]): 180 µg/mL (≈ 380 µM); zone of inhibition at 1000 µg/mL (Shigella boydii): 14 mm; zone of inhibition at 1000 µg/mL [3]: 13 mm; zone of inhibition at 1000 µg/mL (Bacillus cereus): 12 mm; MIC (Salmonella typhi [8]): 340 µg/mL (≈ 718 µM); zone of inhibition at 1000 µg/mL (Staphylococcus aureus [6]): 10 mm; MIC (Klebsiella aerogenes [9]): 150 µg/mL (≈ 317 µM); zone of inhibition at 1000 µg/mL (Bacillus subtilis): 6 mm
O=C(N/N=C/c1cc([N+](=O)[O-])ccc1OCc1cn(-c2ccccc2)nn1)c1ccncc1 | 14 mm | 0.78 µg/mL | inactive | inactive | inactive | 25.7% | inactive | – | inactive | – | inactive | – | – | 13 mm | 12 mm | – | zone of inhibition at 1000 µg/mL (Saccharomyces cerevisiae): 10 mm; diameter of the inhibition zone (DIZ) (Salmonella typhi [5]): inactive
O=C(N/N=C/c1cc([N+](=O)[O-])ccc1OCc1cn(-c2ccc(Cl)cc2)nn1)c1ccncc1 | – | 25 µg/mL | inactive | – | inactive | – | inactive | 13 mm | inactive | inactive | inactive | – | 16 mm | 15 mm | – | inactive | zone of inhibition at 1000 µg/mL (Saccharomyces cerevisiae): 10 mm
O=C(N/N=C/c1cc([N+](=O)[O-])ccc1OCc1cn(-c2cccc([N+](=O)[O-])c2)nn1)c1ccncc1 | – | 0.78 µg/mL | inactive | inactive | inactive | 22.7% | inactive | – | inactive | inactive | inactive | inactive | – | – | – | inactive | diameter of the inhibition zone (DIZ) (Pseudomonas aeruginosa): inactive; diameter of the inhibition zone (DIZ) (Salmonella typhi [5]): inactive
